Patent US10703764B2, “Benzopiperazine compositions as BET bromodomain inhibitors” (FORMA Therapeutics, Inc., priority 2013, dated 2020)

Key:
BRD4 BD1 = target: T1, BRD4 BD1 (Homo sapiens, UniProt O60885); experiment: AlphaScreen binding assay, BRD4 Bromodomain 1
T1 construct: made in house
Method in brief: (§1)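 Compound dilution series were mixed with His-tagged BRD4 bromodomain and biotinylated tetra-acetylated H4 (1-21) peptide at pH 7.3 (BD1 and peptide at 50 nM, BD2 and peptide at 100 nM). Donor and acceptor beads were then added, and plates were equilibrated at least 1 h before reading. IC50 values were fitted with a four-parameter logistic model.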

BRD4 BD2 = target: T2, BRD4 BD2 (Homo sapiens, UniProt O60885); experiment: AlphaScreen binding assay, BRD4 Bromodomain 2
T2 construct: made in house
Method in brief: as §1

MV4-11 cells = experiment: Oncology cell growth assay (3-day proliferation, CellTiter-Glo); type: cell-based; conditions: Homo sapiens, MV4-11, 72 h, AML cell line MV4-11, 72 hours, compounds grouped by IC50 range, read-out: MV4-11 IC50 (inhibition of proliferation, gIC50)
Method in brief: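 MV4-11 AML cells (RPMI 1640, 10% FBS) plated at 3000 cells/well and exposed 72 h to compound at final 10 to 0.0045 μM (3-fold series). Viability read by CellTiter-Glo luminescence; gIC50 from four-parameter logistic fit between DMSO control and no-cell background.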

IC50 (BRD4 BD1) | IC50 (BRD4 BD2) | IC50 (MV4-11 cells) | SMILES
100 to 1000 nM | < 50 nM | 100 to 500 nM | CC(=O)N1c2ccc(-c3cn(S(=O)(=O)N(C)C)cn3)cc2N(C(=O)c2ccco2)C[C@@H]1C [Example I-410]
1000 to 10000 nM | < 50 nM | 100 to 500 nM | CC(=O)N1c2ccc(-c3ccc(-c4ncco4)cc3)cc2N(C(=O)c2ccco2)C[C@@H]1C [Example I-412]
1000 to 10000 nM | < 50 nM | 100 to 500 nM | CC(=O)N1c2ccc(-c3cnc(N)cn3)cc2N(C(=O)c2ccco2)C[C@@H]1C [Example I-413]
1000 to 10000 nM | < 50 nM | 100 to 500 nM | COC(=O)Nc1ccc(-c2ccc3c(c2)N(C(=O)c2ccco2)C[C@H](C)N3C(C)=O)cc1 [Example I-414]
100 to 1000 nM | < 50 nM | 100 to 500 nM | CC(=O)N1c2ccc(-c3ccc(C4(O)COC4)cc3)cc2N(C(=O)c2ccco2)C[C@@H]1C [Example I-415]
100 to 1000 nM | < 50 nM | < 100 nM | CC(=O)N1c2ccc(-c3ccc(N4CCS(=O)(=O)CC4)cc3)cc2N(C(=O)c2ccco2)C[C@@H]1C [Example I-417]
1000 to 10000 nM | 50 to 500 nM | > 500 nM | CC(=O)N1c2ccc(-c3cn(C)nn3)cc2N(C(=O)c2ccco2)C[C@@H]1C [Example I-420]
100 to 1000 nM | < 50 nM | 100 to 500 nM | CC(=O)N1c2ccc(-c3ccc(C(=O)N4CCNCC4)cc3)cc2N(C(=O)c2ccco2)C[C@@H]1C [Example I-422]
1000 to 10000 nM | 50 to 500 nM | 100 to 500 nM | CC(=O)N1c2ccc(-c3ccc(S(=O)(=O)CCO)cc3)cc2N(C(=O)c2ccco2)C[C@@H]1C [Example I-423]
100 to 1000 nM | < 50 nM | 100 to 500 nM | CC(=O)N1c2ccc(-c3ccc(S(=O)(=O)CCN)cc3)cc2N(C(=O)c2ccco2)C[C@@H]1C [Example I-425]
1000 to 10000 nM | < 50 nM | 100 to 500 nM | CC(=O)N1c2ccc(-c3ccc(C(=O)NCCN)cc3)cc2N(C(=O)c2ccco2)C[C@@H]1C [Example I-426]
100 to 1000 nM | < 50 nM | 100 to 500 nM | CC(=O)N1c2ccc(-c3ccc(CN4CCCS4(=O)=O)cc3)cc2N(C(=O)c2ccco2)C[C@@H]1C [Example I-427]
100 to 1000 nM | 50 to 500 nM | 100 to 500 nM | CC(=O)N1c2ccc(-c3ccc(OCCC#N)cc3)cc2N(C(=O)c2ccco2)C[C@@H]1C [Example I-428]
100 to 1000 nM | < 50 nM | 100 to 500 nM | CC(=O)N1c2ccc(-c3ccc(-c4ncc[nH]4)cc3)cc2N(C(=O)c2ccco2)CC1C (stereo not drawn) [Example I-429]
1000 to 10000 nM | 50 to 500 nM | 100 to 500 nM | CC(=O)N1c2ccc(-c3nnc(N)s3)cc2N(C(=O)c2ccco2)C[C@@H]1C [Example I-430]
100 to 1000 nM | < 50 nM | 100 to 500 nM | CC(=O)N1c2ccc(-c3ccc(N4CCS(=O)(=O)CC4)cc3)cc2N(C(=O)C2CC2)C[C@@H]1C [Example I-435]
100 to 1000 nM | 50 to 500 nM | 100 to 500 nM | C[C@H]1CN(C(=O)C2CC2)c2cc(-c3ccc(N4CCS(=O)(=O)CC4)cc3)ccc2N1C(=O)C1CC1 [Example I-436]
100 to 1000 nM | 50 to 500 nM | 100 to 500 nM | CC(=O)N1c2ccc(-c3ccc(C(=O)N4CCNCC4)cc3)cc2N(C(=O)C2CC2)C[C@@H]1C [Example I-437]
100 to 1000 nM | 50 to 500 nM | 100 to 500 nM | C[C@H]1CN(C(=O)C2CC2)c2cc(-c3ccc(C(=O)N4CCNCC4)cc3)ccc2N1C(=O)C1CC1 [Example I-438]

IC50 (BRD4 BD1) | IC50 (BRD4 BD2) | IC50 (MV4-11 cells) | SMILES
100 to 1000 nM | 50 to 500 nM | 100 to 500 nM | CC(=O)N1c2ccc(-c3ccc(N4CCCS4(=O)=O)cc3)cc2N(C(=O)C2CC2)C[C@@H]1C [Example I-439]
100 to 1000 nM | < 50 nM | 100 to 500 nM | CC(=O)N1c2ccc(-c3ccc(C4(O)COC4)cc3)cc2N(C(=O)C2CC2)C[C@@H]1C [Example I-443]
100 to 1000 nM | 50 to 500 nM | 100 to 500 nM | CC(=O)N1c2ccc(-c3ccc(CS(N)(=O)=O)cc3)cc2N(C(=O)C2CC2)C[C@@H]1C [Example I-445]
1000 to 10000 nM | 50 to 500 nM | > 500 nM | CC(=O)N1c2ccc(-c3ccc(S(=O)(=O)CCN)cc3)cc2N(C(=O)C2CC2)C[C@@H]1C [Example I-447]
100 to 1000 nM | 50 to 500 nM | > 500 nM | CC(=O)N1c2ccc(-c3ccc(S(=O)(=O)CCO)cc3)cc2N(C(=O)C2CC2)C[C@@H]1C [Example I-449]
100 to 1000 nM | 50 to 500 nM | 100 to 500 nM | COC(=O)N1c2ccc(-c3ccc(N4CCS(=O)(=O)CC4)cc3)cc2N(C(=O)C2CC2)C[C@@H]1C [Example I-455]
100 to 1000 nM | 50 to 500 nM | 100 to 500 nM | COC(=O)N1c2ccc(-c3ccc(C(=O)N4CCNCC4)cc3)cc2N(C(=O)C2CC2)C[C@@H]1C [Example I-456]
100 to 1000 nM | 50 to 500 nM | 100 to 500 nM | CC(=O)N1c2ccc(-c3cn(C)nn3)cc2N(C(=O)OC(C)C)C[C@@H]1C [Example I-465]
100 to 1000 nM | 50 to 500 nM | 100 to 500 nM | CC(=O)N1c2ccc(-c3ccc(N4CCS(=O)(=O)CC4)cc3)cc2N(C(=O)OC(C)C)C[C@@H]1C [Example I-467]
100 to 1000 nM | 50 to 500 nM | 100 to 500 nM | CC(C)OC(=O)N1C[C@H](C)N(C(=O)C2CC2)c2ccc(-c3ccc(N4CCS(=O)(=O)CC4)cc3)cc21 [Example I-468]
100 to 1000 nM | 50 to 500 nM | 100 to 500 nM | CC(=O)N1c2ccc(-c3ccc(N4CCCS4(=O)=O)cc3)cc2N(C(=O)OC(C)C)C[C@@H]1C [Example I-469]
100 to 1000 nM | > 500 nM | > 500 nM | CC(C)OC(=O)N1C[C@H](C)N(C(=O)C2CC2)c2ccc(-c3ccc(N4CCCS4(=O)=O)cc3)cc21 [Example I-470]
100 to 1000 nM | 50 to 500 nM | 100 to 500 nM | CC(=O)N1c2ccc(-c3cnc(N)cn3)cc2N(C(=O)OC(C)C)C[C@@H]1C [Example I-471]
100 to 1000 nM | > 500 nM | > 500 nM | CC(C)OC(=O)N1C[C@H](C)N(C(=O)C2CC2)c2ccc(-c3cnc(N)cn3)cc21 [Example I-472]
100 to 1000 nM | 50 to 500 nM | 100 to 500 nM | CC(=O)N1c2ccc(-c3ccc(C4(O)COC4)cc3)cc2N(C(=O)OC(C)C)C[C@@H]1C [Example I-473]
100 to 1000 nM | 50 to 500 nM | > 500 nM | CC(C)OC(=O)N1C[C@H](C)N(C(=O)C2CC2)c2ccc(-c3ccc(C4(O)COC4)cc3)cc21 [Example I-474]
100 to 1000 nM | 50 to 500 nM | 100 to 500 nM | CC(=O)N1c2ccc(-c3ccc(CS(N)(=O)=O)cc3)cc2N(C(=O)OC(C)C)C[C@@H]1C [Example I-475]
100 to 1000 nM | > 500 nM | > 500 nM | CC(C)OC(=O)N1C[C@H](C)N(C(=O)C2CC2)c2ccc(-c3ccc(CS(N)(=O)=O)cc3)cc21 [Example I-476]
100 to 1000 nM | < 50 nM | 100 to 500 nM | CC(=O)N1c2ccc(-c3ccc(S(=O)(=O)CCN)cc3)cc2N(C(=O)OC(C)C)C[C@@H]1C [Example I-477]
